According to patent US10450356B2, “PRAME derived peptides and immunogenic compositions comprising these” (Academisch Ziekenhuis Leiden H.O.D.N. LUMC, priority 2007, dated 2019):
Marks after values point to notes of the source that are not given here.

Biological target: T1, 20S proteasomes purified from a B-LCL cell line (immunoproteasomes) (Homo sapiens, UniProt P28062+P28065+P40306)
T1 construct: 20S proteasomes were purified from a B-LCL cell line; endogenous in cells; purified after Groettrup et al. 1995
Test: In vitro proteasome mediated cleavage analysis
Format: biochemical
Parameters: key to Intact in fragment / Intact Fragment: intact epitope found in digestion fragments: (+), present; (-), not present; key to Processing C-term: generation by proteasome-mediated digestion of fragments containing the correct C-terminus: (++) fragments present for >5%; (+) present for <5%; (-) no fragments containing the C-term. were found
Settings: for Processing C-term: generation by proteasome-mediated digestion of fragments containing the correct C-terminus: 1 h digestion; for Intact Fragment: intact epitope found in digestion fragments: after 1 h digestion; for C-term. generation: generation of C-terminus of the epitope after 1 h digestion; for Intact in fragment: intact epitope found in digestion fragments after 1 h digestion
Protocol: 20S proteasomes were purified from a B-LCL cell line as described by Groettrup et al. (J. Biol. Chem. 270:23808-23815; 1995). This cell type is known to contain immunoproteasomes. High LMP2 and 7 content was confirmed by 2-D immuno-blotting. To assess kinetics, digestions were performed with different incubation periods. Peptides (27 mers, 20 μg) were incubated with 1 μg of purified proteasome at 37° C. for 1 h, 4 h and 24 h in 300 μl proteasome digestion buffer as described (Eggers, et al. 1995. J. Exp. Med. 182:1865). Trifluoroacetic acid was added to stop the digestion and samples were stored at −20° C. before mass spectrometric analysis.
Electrospray ionization mass spectrometry was performed on a hybrid quadrupole time-of-flight mass spectrometer, a Q-TOF (Micromass), equipped with an on-line nanoelectrospray interface with an approximate flow rate of 250 nL/min. Injections were done with a dedicated micro/nano HPLC autosampler, the FAMOS (LC Packings). Digestion solutions were diluted five times in water-methanol-acetic acid (95:5:1, v/v/v), and trapped on the precolumn (MCA-300-05-C8; LC Packings) in water-methanol-acetic acid (95:5:1, v/v/v). Washing of the precolumn was done for 3 min to remove the buffers present in the digests. Subsequently, the trapped analytes were eluted with a steep gradient going from 70% B to 90% B in 10 min, with a flow of 250 nl/min (A: water-methanol-acetic acid (95:5:1, v/v/v); B: water-methanol-acetic acid (10:90:1, v/v/v)). This low elution rate allows for a few additional MS/MS experiments if necessary during the same elution. Mass spectra were recorded from mass 50-2000 Da every second. The resolution allows direct determination of the monoisotopic mass, also from multiple charged ions. The peaks in the mass spectrum were searched in the digested precursor peptide using the Biolynx/proteins software (Micromass). The intensity of the peaks in the mass spectra was used to establish the relative amounts of peptides generated by proteasome digestion.

Row | Processing C-term: generation by proteasome-mediated digestion of fragments containing the correct C-terminus | Intact Fragment: intact epitope found in digestion fragments | C-term. generation | Intact in fragment | SMILES
1 | + ((+) present for <5%) | + | + (low abundant (+) present for <5%) | + | CC(C)C[C@H](NC(=O)[C@H](CC(C)C)NC(=O)[C@H](CCC(=O)O)NC(=O)[C@H](CCCNC(=N)N)NC(=O)[C@H](CC(C)C)NC(=O)[C@H](CCCNC(=N)N)NC(=O)[C@H](C)NC(=O)[C@H](Cc1c[nH]cn1)NC(=O)[C@H](CC(C)C)NC(=O)[C@@H](N)Cc1ccc(O)cc1)C(=O)O
2 | + ((+) present for <5%) | - |  |  | CC(C)C[C@H](NC(=O)[C@H](C)NC(=O)[C@H](CCC(N)=O)NC(=O)[C@H](CC(C)C)NC(=O)[C@H](CS)NC(=O)[C@H](CCC(N)=O)NC(=O)[C@H](CC(C)C)NC(=O)[C@@H](N)CO)C(=O)N[C@@H](Cc1ccc(O)cc1)C(=O)N[C@H](C(=O)O)C(C)C
3 | - | - |  |  | CC(C)C[C@H](NC(=O)CNC(=O)[C@H](CC(=O)O)NC(=O)[C@H](CC(C)C)NC(=O)[C@@H](N)C(C)C)C(=O)N[C@@H](CC(=O)O)C(=O)N[C@H](C(=O)N[C@@H](CC(C)C)C(=O)N[C@@H](CC(C)C)C(=O)N[C@@H](C)C(=O)O)C(C)C
4 | - | - |  |  | CC(C)C[C@H](NC(=O)[C@H](CCCCN)NC(=O)[C@H](CCCCN)NC(=O)[C@H](CS)NC(=O)[C@H](CS)NC(=O)[C@H](CC(C)C)NC(=O)[C@H](CCCNC(=N)N)NC(=O)[C@H](CC(C)C)NC(=O)[C@@H](N)C(C)C)C(=O)N[C@@H](CCCCN)C(=O)O
5 | - | - |  |  | CC(C)C[C@H](NC(=O)[C@H](CC(=O)O)NC(=O)[C@H](CC(C)C)NC(=O)[C@@H](NC(=O)[C@H](CCC(N)=O)NC(=O)[C@H](CC(C)C)NC(=O)[C@@H](N)CCCCN)C(C)C)C(=O)N[C@@H](CCCNC(=N)N)C(=O)N[C@@H](CCCCN)C(=O)O
6 | +^(k) ((+) present for <5%) | + |  | + | CC[C@H](C)[C@H](NC(=O)[C@H](CCSC)NC(=O)[C@H](CCC(N)=O)NC(=O)CNC(=O)[C@H](CC(C)C)NC(=O)[C@H](Cc1ccc(O)cc1)NC(=O)[C@@H]1CCCN1)C(=O)N[C@@H](CC(N)=O)C(=O)N[C@@H](CC(C)C)C(=O)O
7 |  |  | + (low abundant (+) present for <5%) | + | CSCC[C@H](NC(=O)[C@@H](NC(=O)[C@H](CC(=O)O)NC(=O)CNC(=O)[C@H](CCC(=O)O)NC(=O)[C@H](CO)NC(=O)[C@H](CC(C)C)NC(=O)[C@@H](N)CCCNC(=N)N)C(C)C)C(=O)N[C@@H](Cc1c[nH]cn1)C(=O)N[C@@H](CC(C)C)C(=O)O
8 | - | - |  |  | CC[C@H](C)[C@H](NC(=O)[C@H](CCSC)NC(=O)[C@H](CCC(N)=O)NC(=O)CNC(=O)[C@H](CC(C)C)NC(=O)[C@@H](N)Cc1ccc(O)cc1)C(=O)N[C@@H](CC(N)=O)C(=O)N[C@@H](CC(C)C)C(=O)N[C@@H](CCCNC(=N)N)C(=O)N[C@@H](CCCNC(=N)N)C(=O)O
9 | - | - |  |  | CSCC[C@H](NC(=O)[C@H](CC(C)C)NC(=O)[C@@H](N)C(C)C)C(=O)N[C@@H](CCCCN)C(=O)NCC(=O)N[C@@H](CCC(N)=O)C(=O)N[C@@H](Cc1c[nH]cn1)C(=O)N[C@@H](CC(C)C)C(=O)N[C@@H](Cc1c[nH]cn1)C(=O)N[C@@H](CC(C)C)C(=O)O
10 | - | - |  |  | CC(C)C[C@H](NC(=O)[C@@H](NC(=O)[C@H](CC(=O)O)NC(=O)[C@H](CC(C)C)NC(=O)CNC(=O)[C@H](CC(=O)O)NC(=O)[C@H](CC(C)C)NC(=O)[C@@H](NC(=O)[C@H](C)N)C(C)C)C(C)C)C(=O)O
11 | ++ ((++) fragments present for >5%) | + | ++ (abundant (++) present for >5%) | + | CC[C@H](C)[C@H](NC(=O)[C@H](C)NC(=O)[C@H](CC(C)C)NC(=O)[C@H](C)NC(=O)[C@H](CCC(=O)O)NC(=O)[C@H](CC(=O)O)NC(=O)[C@H](CCCCN)NC(=O)[C@H](CC(C)C)NC(=O)[C@@H](N)CC(C)C)C(=O)O
12 |  |  | ++ (abundant (++) present for >5%) | + | CC[C@H](C)[C@H](NC(=O)[C@H](CO)NC(=O)[C@H](CC(C)C)NC(=O)[C@@H](N)[C@@H](C)O)C(=O)N[C@H](C(=O)N[C@@H](CC(N)=O)C(=O)N[C@@H](CS)C(=O)N[C@@H](CCCNC(=N)N)C(=O)N[C@@H](CC(C)C)C(=O)O)[C@@H](C)O
13 | - | - |  |  | CC[C@H](C)[C@H](NC(=O)[C@H](CC(=O)O)NC(=O)[C@H](CCC(N)=O)NC(=O)[C@H](CCSC)NC(=O)[C@@H]1CCCN1C(=O)[C@H](CCSC)NC(=O)[C@H](C)NC(=O)[C@H](Cc1ccccc1)NC(=O)[C@@H](NC(=O)[C@@H](N)CCCCN)[C@@H](C)CC)C(=O)O
14 | - | - |  |  | CC(C)C[C@H](NC(=O)[C@@H](NC(=O)[C@H](CC(N)=O)NC(=O)[C@H](CCCCN)NC(=O)[C@H](CCCCN)NC(=O)[C@H](CCCNC(=N)N)NC(=O)[C@H](CCCCN)NC(=O)[C@@H](NC(=O)[C@@H](N)CCCCN)C(C)C)C(C)C)C(=O)N[C@@H](CCCNC(=N)N)C(=O)O
15 | ++ ((++) fragments present for >5%) | + | ++ (abundant (++) present for >5%) | + | CC[C@H](C)[C@H](NC(=O)[C@H](CO)NC(=O)[C@@H](NC(=O)[C@H](CO)NC(=O)[C@H](CC(N)=O)NC(=O)CNC(=O)[C@H](Cc1ccc(O)cc1)NC(=O)[C@H](Cc1ccccc1)NC(=O)[C@@H](N)CO)[C@@H](C)CC)C(=O)O
16 | + ((+) present for <5%) | + | + (low abundant (+) present for <5%) | + | CC(C)C[C@H](NC(=O)[C@@H]1CCCN1C(=O)[C@H](CCC(=O)O)NC(=O)[C@@H]1CCCN1C(=O)[C@H](CO)NC(=O)[C@@H](NC(=O)[C@H](CC(=O)O)NC(=O)[C@@H](NC(=O)[C@@H](N)CC(C)C)[C@@H](C)O)C(C)C)C(=O)N[C@@H](CCC(N)=O)C(=O)N[C@@H](C)C(=O)O
17 | - | - |  |  | CC(C)C[C@H](NC(=O)[C@H](Cc1ccc(O)cc1)NC(=O)[C@H](C)NC(=O)[C@H](CC(C)C)NC(=O)[C@H](CCCNC(=N)N)NC(=O)[C@H](CCC(=O)O)NC(=O)[C@H](CC(C)C)NC(=O)[C@H](Cc1c[nH]cn1)NC(=O)[C@H](CC(C)C)NC(=O)[C@@H](N)[C@@H](C)O)C(=O)O
18 | - | - |  |  | CC[C@H](C)[C@H](NC(=O)[C@H](CC(C)C)NC(=O)[C@H](Cc1ccc(O)cc1)NC(=O)[C@H](CO)NC(=O)[C@H](Cc1ccccc1)NC(=O)[C@H](CC(C)C)NC(=O)[C@@H](N)CCC(=O)O)C(=O)N[C@@H](CCC(=O)O)C(=O)N[C@@H](CCCCN)C(=O)N[C@H](C(=O)O)C(C)C
19 | - | - |  |  | CC[C@H](C)[C@H](NC(=O)[C@H](CC(C)C)NC(=O)[C@H](Cc1c[nH]cn1)NC(=O)[C@H](CCC(N)=O)NC(=O)[C@H](CC(C)C)NC(=O)[C@H](CC(C)C)NC(=O)[C@H](CO)NC(=O)[C@H](CCC(N)=O)NC(=O)[C@H](CC(C)C)NC(=O)[C@H](C)N)C(=O)O
20 | - | - |  |  | C[C@@H](O)[C@H](NC(=O)[C@H](CCCNC(=N)N)NC(=O)[C@H](CC(=O)O)NC(=O)CNC(=O)[C@H](CS)NC(=O)[C@H](Cc1c[nH]cn1)NC(=O)[C@@H]1CCCN1C(=O)[C@@H](N)CS)C(=O)N[C@@H](Cc1ccccc1)C(=O)N[C@@H](Cc1ccc(O)cc1)C(=O)O
